{
  "source": "paper PMC10353061",
  "about": "(ACS Pharmacology & Translational Science, 2023)",
  "key": {"[1]": {"target": "T1, β-catenin Armadillo repeats domain (Homo sapiens, UniProt P35222)", "T1 construct": "GST (N, cleaved yes); made in house; host or cells: Escherichia coli BL21(DE3)", "T1 sequence (P35222 133-664)": "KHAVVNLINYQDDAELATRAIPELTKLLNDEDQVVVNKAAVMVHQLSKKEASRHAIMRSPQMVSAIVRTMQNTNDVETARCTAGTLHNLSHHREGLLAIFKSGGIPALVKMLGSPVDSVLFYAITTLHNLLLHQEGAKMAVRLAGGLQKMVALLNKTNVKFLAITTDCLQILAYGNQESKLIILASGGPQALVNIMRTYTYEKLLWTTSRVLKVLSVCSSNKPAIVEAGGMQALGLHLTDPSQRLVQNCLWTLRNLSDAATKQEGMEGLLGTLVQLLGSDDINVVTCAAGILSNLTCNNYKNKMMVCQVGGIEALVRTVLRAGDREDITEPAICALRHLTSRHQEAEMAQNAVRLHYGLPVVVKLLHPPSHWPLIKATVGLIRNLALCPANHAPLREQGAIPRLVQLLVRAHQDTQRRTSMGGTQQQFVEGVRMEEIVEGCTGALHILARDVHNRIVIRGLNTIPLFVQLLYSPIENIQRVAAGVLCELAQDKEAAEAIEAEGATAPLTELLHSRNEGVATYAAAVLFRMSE", "assay": "Surface plasmon resonance binding of 9 to immobilized β-catenin Armadillo repeats domain", "settings": "SPR, 25 °C, analyte 1.95-62.5 nM, 1:1 model; read-out: ka", "protocol": "To collect detailed kinetic data of the binding measured as the rate constants of the association (ka) and dissociation (kd) of the complex, a concentration series of the analyte ranging from 1.95 up to 62.5 nM was injected over the covalently immobilized Armadillo repeats domain onto the sensor chip surface and the interaction between the analyte and the ligand was detected as a measure of the change in mass concentration upon the surface, expressed in resonance units (RUs) and compared to the baseline.\nFull kinetic analysis of the binding interaction between 9 when binding to the Armadillo domain is shown in Figure 4, with the calculated binding parameters listed in the bottom table. As evidenced by the sensorgram obtained at different analyte concentrations, the dissociation rate constant of 9 is very slow, thereby resulting in a low nanomolar equilibrium affinity constant (KD) of the binding calculated as the ratio of kd/ka (Figure 4).\nFigure 4 SPR kinetic analysis. […]\nThe analyte 9 was dialyzed in the running buffer (1% final DMSO concentration) and injected at different concentrations for 120 s onto the sensor chip at a constant flow rate of 50 μL/min. […] The equilibrium dissociation constant (KD) was determined by the ratio Koff/Kon. […]"}, "[2]": {"system": "Fgf20 and Sal4", "assay": "Wnt-target gene mRNA levels (qPCR) in LiCl-treated HCT116 cells", "assay_type": "cell-based, human", "settings": "HCT116, LiCl 50 mM, 24 h, 10 μM", "protocol": "To this end, HCT116 cells were treated for 24 h with 50 mM LiCl and increasing concentrations (10–50–100 μM) of the two compounds.\nHCT116 was treated with LiCl (50 mM) and 10 μM compound 9 or 10 for 24 h. Fgf20, Sall4 (Wnt-target genes) mRNA levels were measured by qPCR and normalized to the expression of β-actin mRNA. Results are expressed as fold change relative to the control sample and represent the mean ± SD of three independent experiments, each performed in triplicate. *p < 0.05, **p < 0.01, ***p < 0.001 as determined by ANOVA."}},
  "data": [
    {"smiles": "O=S(=O)(Nc1ccc(-c2ccccn2)cc1)c1ccc(Br)cc1", "note": "[Compound 9, 4-Bromo-N-(4-(pyridin-2-yl)phenyl)benzenesulfonamide]", "values": [
      {"measurement": "kon", "setting": "[1]", "result": 293000, "unit": "M⁻¹ s⁻¹"},
      {"measurement": "mRNA levels of Wnt-target genes Fgf20 and Sal4", "setting": "[2]", "result": "strongly inhibited"}
    ]}
  ]
}
